Data as given in PubChem BioAssay AID608 (Sanford-Burnham Center for Chemical Genomics, 2007).
Activity calls are given as the source filed them. No rule for the calls is given here.

target: Peptidyl-prolyl cis-trans isomerase FKBP1A (Homo sapiens) (UniProt P62942); experiment: FKBP12 binders, biophysical, NMR detection (AID 608); conditions: NMR binding, purified FKBP12
Sequence (P62942 whole entry, looked up): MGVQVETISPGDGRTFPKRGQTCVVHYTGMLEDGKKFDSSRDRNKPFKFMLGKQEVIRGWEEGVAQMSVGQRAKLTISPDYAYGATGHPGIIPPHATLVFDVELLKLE

Kd, inactive:
O=C(O)c1cn(-c2ccccc2)nc1-c1ccncc1 > 4 mM
Nc1nnc(SCc2ccc(F)cc2Cl)s1 > 4 mM
CS(=O)(=O)N1CCN(c2ccccc2F)CC1 > 4 mM
Cc1nc(N2CCOCC2)[nH]c(=O)c1C > 4 mM
O=C(Nc1cnc2ccccn2c1=O)c1ccc(F)cc1 > 4 mM
COC(=O)C[C@@H]1C2(C)C(=O)[C@@H](CC3=C4C=C(OC)O[C@@H](c5ccoc5)[C@]4(C)CCC32)[C@H](O)C1(C)C (some centres not stated) > 4 mM
OCc1ccc(-n2ccnc2)cc1 > 4 mM
Cc1nnc2sc(-c3ccco3)nn12 > 4 mM
CCOc1nc(C)ccc1-c1noc(-c2ccncc2)n1 > 4 mM
O=C(CN1CCOCC1)Nc1cccc(Br)c1 > 4 mM
CC(=O)Nc1ccc(C(=O)N2CCOCC2)cc1Cl > 4 mM
Cc1ccc(SC(C)c2nc(-c3ccncc3)no2)cc1 (configuration not stated)
O=c1/c(=C\c2cccnc2)sc2nc3ccccc3n12 > 4 mM
COc1ccc(S(=O)(=O)Nc2ccccn2)c(C)c1C > 4 mM
COc1ccc2nc(SCC(N)=O)[nH]c2c1 > 4 mM
C/C1=C\CCC(=O)C2CC(C)(C)C2CC1 (configuration not stated) > 4 mM
CC(C)C(=O)NC(=S)N1CCOCC1 > 4 mM
CC(C)c1c(O)ccc2c1CCC1C(C)(C)CCC[C@]21C (some centres not stated) > 4 mM
O=C(COc1ccccc1F)N1CCOCC1
CN1CCN(C(=O)/C=C\C(=O)O)CC1 > 4 mM
O=[N+]([O-])c1cccc2c1nnn2C(CO)OCCO (configuration not stated) > 4 mM
Cc1cc(C)n(CC(=O)NC2CCCCC2)n1 > 4 mM
Nc1ncnc(Nc2ccccc2C(F)(F)F)n1 > 4 mM
CC(=O)Nc1cccc(NC(=O)c2ccco2)c1 > 4 mM
CNC(=O)N1CCN(C(=O)NC)CC1 > 4 mM
O=C1NC(=S)N/C1=C\c1cccnc1 > 4 mM
COc1cc2ccc(=O)oc2c(OC)c1OC > 4 mM
CCc1nnc(NC(C)=O)s1 > 4 mM
O=C(O)Cn1c(C(F)(F)F)nc2ccccc21 > 4 mM
NC(=O)C1CCN(C(=O)c2ccco2)CC1 > 4 mM
CCN1CCN(CCCNc2ncnc3nc[nH]c23)CC1 > 4 mM
O=C(Nn1cnnc1)c1ccccc1-c1ccccc1 > 4 mM
CNC(=S)Nc1ncn(Cc2cccc(F)c2)n1 > 4 mM
CC(=O)c1ccc[nH]1 > 4 mM
CC(=O)c1ccc(NS(=O)(=O)c2cccc(C)c2)cc1 > 4 mM
CN(C)c1ccc(CNn2cnnc2)cc1 > 4 mM
COC(=O)C1CSCC1=O (configuration not stated) > 4 mM
Cc1ccc(NS(=O)(=O)N2CCOCC2)cc1
NC(=O)CSc1ccc2nnc(-c3ccccc3)n2n1 > 4 mM
CC(=O)Nc1ccc2c(c1)CCC2=O > 4 mM
CN(C)C(=O)CSc1nc(N)cc(=O)[nH]1 > 4 mM
CC1=CCc2c(cc3oc(C)cc(=O)c3c2O)OC1 > 4 mM
CC1O[C@@H](Oc2c(-c3ccc(O)c(O)c3)oc3cc(O)cc(O)c3c2=O)[C@H](O)[C@H](O)[C@H]1O (some centres not stated) > 4 mM
CC(=O)Nc1sccc1C(=O)NC(N)=O > 4 mM
O=C(O)C1CSC(c2ccccc2)N1 (configuration not stated) > 4 mM
CCOC(=O)c1c(SC)nc(=O)[nH]c1C > 4 mM
c1cncc(-c2nnc(-c3cccnc3)nn2)c1 > 4 mM
Cc1nn(C)c(C)c1C(=O)O > 4 mM
Cc1ccc(NC(=O)CC2NCCNC2=O)c(C)c1 (configuration not stated) > 4 mM
CN(C)C(=O)C12CCC(C)(C(=O)O1)C2(C)C (configuration not stated) > 4 mM
CCOC(=O)c1csc(C)n1 > 4 mM
CCNC(=S)Nc1c(C)n(C)n(-c2ccccc2)c1=O > 4 mM
